The source made the active and inactive calls. No cut-off for these calls is given here.
Key:
[1] = test system: Mus musculus; assay: Antimetastatic activity against mouse 4T1 cells xenografted in BALB/c mouse assessed as reduction of TGFbeta mRNA expression in tumor at 5 mg/kg, ip qd for 23 days by RT-PCR analysis; format: functional, organism-based; parameters: dose 5 mg/kg
[2] = test system: U-251; assay: Growth inhibition of human U251 cells after 48 hrs by sulforhodamine B assay; format: functional; conditions: U-251, 48 h
[3] = test system: MCF7; assay: Growth inhibition of human MCF7 cells after 48 hrs by sulforhodamine B assay; format: functional; conditions: MCF7, 48 h
[4] = test system: NCI-H322M; assay: Growth inhibition of human NCI-H322M cells after 48 hrs by sulforhodamine B assay; format: functional
[5] = test system: EKVX; assay: Growth inhibition of human EKVX cells after 48 hrs by sulforhodamine B assay; format: functional
[6] = test system: BGC-823; assay: Cytotoxicity against human BGC823 cells after 72 hrs by MTT assay; format: functional, cell-based
[7] = test system: HCC 2998; assay: Growth inhibition of human HCC2998 cells after 48 hrs by sulforhodamine B assay; format: functional; conditions: HCC 2998, 48 h
[8] = test system: A2780; assay: Cytotoxicity against human A2780 cells after 72 hrs by MTT assay; format: functional, cell-based
[9] = test system: 4T1; assay: Antitumor activity against mouse 4T1 cells xenografted in […] mouse assessed as tumor growth inhibition at 5 mg/kg, ip qd for 28 days relative to control; format: functional; conditions: 4T1, ip, 672 h, route intraperitoneal, read-out: GI
[10] = test system: SK-OV-3; assay: Growth inhibition of human SKOV3 cells after 48 hrs by sulforhodamine B assay; format: functional; conditions: SK-OV-3, 48 h
[11] = test system: M14; assay: Growth inhibition of human M14 cells after 48 hrs by sulforhodamine B assay; format: functional; conditions: M14, 48 h
[12] = test system: NCI-H460; assay: Antitumor activity against human H460 cells xenografted in nu/nu BALB/c mouse assessed as tumor growth inhibition at 5 mg/kg, ip qd for 24 days measured on day 25 relative to control; format: functional; conditions: route intraperitoneal, read-out: GI

CC(=O)O[C@H]1C(=O)[C@@]2(C)[C@H]([C@H](OC(=O)c3ccccc3)[C@]3(O)C[C@H](OC(=O)[C@H](OC(=O)CCC(=O)NCCCC[C@H](NC(=O)CC[C@H](NC(=O)[C@H](C)NC(=O)/C=C/c4ccc(Cl)cc4)C(N)=O)C(N)=O)[C@H](NC(=O)c4ccccc4)c4ccccc4)C(C)=C1C3(C)C)[C@]1(OC(C)=O)CO[C@@H]1C[C@@H]2O
Activity [1]: Active | GI50 [2]: < 0.01 µM | GI50 [3]: < 0.01 µM | GI50 [4]: < 0.01 µM | GI50 [5]: < 0.01 µM | Activity [6]: Active | GI50 [7]: < 0.01 µM | Activity [8]: Active | inhibition in vivo at 5 mg/kg [9]: 33.5% | GI50 [10]: < 0.01 µM | GI50 [11]: < 0.01 µM | inhibition in vivo at 5 mg/kg [12]: 2.15%

From ChEMBL document CHEMBL1773045, “Conjugate (MTC-220) of muramyl dipeptide analogue and paclitaxel prevents both tumor growth and metastasis in mice” (J Med Chem, 2011)
